Experiment [1] concerns HCV pseudotype (HIV core proteins, HCV E1 and E2 of strain H77). The conditions noted are these: for Percent inhibition: 25 μM; for Inhibition of HCV pseudotype infectivity (in words): summary of Tables 7 and 8.
The subject of another experiment is HIV-1. The conditions noted are these: AIDS patients, clinical trials; cited from earlier work.
Setting [2] is: HCV H77 1a E2 peptides at ~25 μM, Table 7, virus alone 448,123.
[3] abbreviates: HCV J4 1b E2 peptides at ~25 μM, Table 8, controls as in Table 7.

Consider 26 substances from US7381705B2, “Inhibitors of hepatitis C virus” (The Administrators Of The Tulane Educational Fund, priority 2004, dated 2008).

Read-outs that look alike come from different tables or passages of the source. Ends that are not written are not given here.

In the case of “QNIVDVQYLYGVGSSIAS [compound 44, QNIVDVQYLYGVGSSIAS]”, in experiment [1], the Percent inhibition was 79.6% and the “Inhibition of HCV pseudotype infectivity (in words)” value (shortened to “Inhibition … (in words)”) is listed as “inhibitory”. In addition, in experiment [1] (setting [2]), the Luciferase units is listed as 91,266 luciferase units (lumens).
As to “QVLPCSFTTLPALSTGLI [compound 41, QVLPCSFTTLPALSTGLI]”, in experiment [1], the Percent inhibition worked out at 3.0%. The Luciferase units in experiment [1] (setting [2]) is 434,743 luciferase units (lumens).
In the case of RCGSGPWITPRCMVDYPY [compound 30], the Percent inhibition in experiment [1] is recorded as −46.2%. Also, in experiment [1] (setting [2]), the Luciferase units was 655,040 luciferase units (lumens).
As to “RSELSPLLLSTTQWQVLP [compound 39, RSELSPLLLSTTQWQVLP]”, the Percent inhibition in experiment [1] was determined as 11.6%. The Luciferase units in experiment [1] (setting [2]) is 400,756 luciferase units (lumens).
Take “SIASWAIKWEYVVLLFLL [compound 46, SIASWAIKWEYVVLLFLL]”: in experiment [1], the Percent inhibition was 77.0% and the “Inhibition … (in words)” value was “inhibitory”. Moreover, the Luciferase units in experiment [1] (setting [2]) was 103,040 luciferase units (lumens).
As for “SPVVVGTTDRSGAPTYSW [compound 19, SPVVVGTTDRSGAPTYSW]”, in experiment [1], the Percent inhibition came out at 32.7%. Besides, in experiment [1] (setting [2]), the Luciferase units is given as 301,406 luciferase units (lumens).
Regarding “SPVVVGTTDRSGVPTYSW [compound 95, SPVVVGTTDRSGVPTYSW]”, in experiment [1], the Percent inhibition is recorded as −20.1%. Moreover, the Luciferase units in experiment [1] (setting [3]) is given as 538,110 luciferase units (lumens).
As for SSGCPERLASCRRLTDFA [compound 10], the Percent inhibition in experiment [1] stood at 25.4%. The Luciferase units in experiment [1] (setting [2]) is 334,196 luciferase units (lumens).
Regarding SSGCPERMASCRPIDWFA [compound 87], the Percent inhibition in experiment [1] is 10.8%. The Luciferase units in experiment [1] (setting [3]) is 399,700 luciferase units (lumens).
As for “TDFAQGWGPISYANGSGL [compound 12, TDFAQGWGPISYANGSGL]”, the Percent inhibition in experiment [1] was 6.8%. For the same substance, in experiment [1] (setting [2]), the Luciferase units is 417,706 luciferase units (lumens).
Regarding “TDRSGVPTYSWGENETDV [compound 96, TDRSGVPTYSWGENETDV]”, in experiment [1], the Percent inhibition is −21.5%. Besides, the Luciferase units in experiment [1] (setting [3]) is given as 544,596 luciferase units (lumens).
The matching figures for “TGFFAALFYAHKFNSSGC [compound 51, TGFFAALFYAHKFNSSGC]”: 47.1% and 237,086 luciferase units (lumens).
Consider “TGLIHLHQNIVDVQYLYG [compound 43, TGLIHLHQNIVDVQYLYG]”, for which, in experiment [1], the Percent inhibition is listed as 92.8% and the “Inhibition … (in words)” value is on record as “inhibitory”. Besides, in experiment [1] (setting [2]), the Luciferase units is given as 32,283 luciferase units (lumens).
On to TKTCGGPPCNIGGVGNRT [compound 101], for which, in experiment [1], the Percent inhibition is −12.0%. Also, the Luciferase units in experiment [1] (setting [3]) was 502,096 luciferase units (lumens).
With TKVCGAPPCVIGGVGNNT [compound 25], the Percent inhibition in experiment [1] is 7.2%. In addition, the Luciferase units in experiment [1] (setting [2]) is recorded as 480,280 luciferase units (lumens).
As to “TSLFSSGASQKIQLVNTN [compound 82, TSLFSSGASQKIQLVNTN]”, in experiment [1], the Percent inhibition is recorded as 61.4%. Also, in experiment [1] (setting [3]), the Luciferase units is given as 173,156 luciferase units (lumens).
On to “TTLPALSTGLIHLHQNIV [compound 42, TTLPALSTGLIHLHQNIV]”, for which, in experiment [1], the Percent inhibition was 19.1%. Moreover, the Luciferase units in experiment [1] (setting [2]) is 353,516 luciferase units (lumens).
As to “TTLPALSTGLIHLHQNIV [compound 117, TTLPALSTGLIHLHQNIV]”, the Percent inhibition in experiment [1] came to 19.8%. In addition, the Luciferase units in experiment [1] (setting [3]) is reported as 359,236 luciferase units (lumens).
As for “TYSWGANDTDVFVLNNTR [compound 20, TYSWGANDTDVFVLNNTR]”, the Percent inhibition in experiment [1] stood at 48.4%. The Luciferase units in experiment [1] (setting [2]) was 231,373 luciferase units (lumens).
“TYSWGENETDVMLLNNTR [compound 97, TYSWGENETDVMLLNNTR]”: the Percent inhibition in experiment [1] is listed as 51.2%. Also, the Luciferase units in experiment [1] (setting [3]) is 218,673 luciferase units (lumens).
As for “VGLLTPGAKQNIQLINTN [peptide 4, VGLLTPGAKQNIQLINTN]”, in experiment [1], the Percent inhibition is 97.6% and the “Inhibition … (in words)” value is “inhibitory”. For the same substance, the Luciferase units in experiment [1] (setting [2]) is recorded as 10,620 luciferase units (lumens).
As to WMNSTGFTKTCGGPPCNI [compound 100], the Percent inhibition in experiment [1] is −15.6%. Further, in experiment [1] (setting [3]), the Luciferase units is reported as 518,190 luciferase units (lumens).
Consider WMNSTGFTKVCGAPPCVI [compound 24], for which, in experiment [1], the Percent inhibition came out at 19.7%. The Luciferase units in experiment [1] (setting [2]) is listed as 391,886 luciferase units (lumens).
Turning to “YLYGVGSSIASWAIKWEY [compound 45, YLYGVGSSIASWAIKWEY]”, in experiment [1], the Percent inhibition is 94.5% and the “Inhibition … (in words)” value was “inhibitory”. The Luciferase units in experiment [1] (setting [2]) was 24,703 luciferase units (lumens).
Turning to “YTIFKVRMYVGGVEHRLE [compound 34, YTIFKVRMYVGGVEHRLE]”, the Percent inhibition in experiment [1] is 21.8%. The Luciferase units in experiment [1] (setting [2]) was 354,696 luciferase units (lumens).
For enfuvirtide, the HIV-1 load result with HIV-1 is given as “substantially reduce”.
